According to BindingDB's records for doi:10.1016/j.bmcl.2004.02.007 (Research Triangle Institute, 2004):
pKi: −log10 of the molar value.

Experiments:
[1] = target: Neuronal acetylcholine receptor subunit alpha-3/beta-2 (Rattus norvegicus, UniProt P12390+P04757); assay: Binding affinity towards rat Nicotinic acetylcholine receptor alpha3-beta2 expressed in Xenopus oocytes using [3H]epibatidine as radioligand
[2] = target: Neuronal acetylcholine receptor subunit alpha-4/beta-2 (Rattus norvegicus, UniProt P09483+P12390); assay: Binding affinity towards rat Nicotinic acetylcholine receptor alpha4-beta2 expressed in Xenopus oocytes using [3H]epibatidine as radioligand
Neuronal acetylcholine receptor subunit alpha-4/beta-2, sequence (P09483 whole entry): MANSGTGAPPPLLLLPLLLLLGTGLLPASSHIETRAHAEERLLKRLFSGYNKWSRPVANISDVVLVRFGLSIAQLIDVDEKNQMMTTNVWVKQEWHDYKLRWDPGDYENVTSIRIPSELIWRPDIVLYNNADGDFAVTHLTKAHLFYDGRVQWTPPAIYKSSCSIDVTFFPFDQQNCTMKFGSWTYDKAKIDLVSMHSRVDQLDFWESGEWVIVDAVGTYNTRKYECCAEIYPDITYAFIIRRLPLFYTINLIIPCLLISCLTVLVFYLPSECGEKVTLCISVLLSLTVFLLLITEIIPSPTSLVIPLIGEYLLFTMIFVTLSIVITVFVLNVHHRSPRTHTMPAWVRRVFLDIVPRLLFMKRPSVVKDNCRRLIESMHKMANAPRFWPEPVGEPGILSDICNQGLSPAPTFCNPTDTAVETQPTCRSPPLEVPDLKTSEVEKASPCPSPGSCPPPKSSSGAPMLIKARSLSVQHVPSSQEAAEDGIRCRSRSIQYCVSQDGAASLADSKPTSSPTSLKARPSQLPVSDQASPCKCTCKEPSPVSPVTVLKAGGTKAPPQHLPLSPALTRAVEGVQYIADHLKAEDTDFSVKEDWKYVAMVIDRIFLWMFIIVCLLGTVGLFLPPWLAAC
Neuronal acetylcholine receptor subunit alpha-4/beta-2, sequence (P12390 whole entry): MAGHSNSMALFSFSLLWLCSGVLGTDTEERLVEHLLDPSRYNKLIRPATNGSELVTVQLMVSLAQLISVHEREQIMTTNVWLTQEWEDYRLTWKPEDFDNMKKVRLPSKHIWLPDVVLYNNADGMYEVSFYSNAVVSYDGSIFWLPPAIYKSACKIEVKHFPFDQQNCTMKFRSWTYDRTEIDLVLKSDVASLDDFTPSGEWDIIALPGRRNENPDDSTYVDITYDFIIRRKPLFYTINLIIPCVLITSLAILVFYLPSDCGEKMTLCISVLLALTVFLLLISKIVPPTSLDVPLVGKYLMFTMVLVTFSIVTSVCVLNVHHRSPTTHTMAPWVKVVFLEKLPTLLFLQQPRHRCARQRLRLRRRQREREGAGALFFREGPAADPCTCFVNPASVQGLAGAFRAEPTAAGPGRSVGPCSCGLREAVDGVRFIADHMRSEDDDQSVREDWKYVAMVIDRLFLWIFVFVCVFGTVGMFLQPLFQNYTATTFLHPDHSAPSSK

Neuronal acetylcholine receptor subunit alpha-3/beta-2, sequence (P12390 whole entry): as above
Neuronal acetylcholine receptor subunit alpha-3/beta-2, sequence (P04757 whole entry): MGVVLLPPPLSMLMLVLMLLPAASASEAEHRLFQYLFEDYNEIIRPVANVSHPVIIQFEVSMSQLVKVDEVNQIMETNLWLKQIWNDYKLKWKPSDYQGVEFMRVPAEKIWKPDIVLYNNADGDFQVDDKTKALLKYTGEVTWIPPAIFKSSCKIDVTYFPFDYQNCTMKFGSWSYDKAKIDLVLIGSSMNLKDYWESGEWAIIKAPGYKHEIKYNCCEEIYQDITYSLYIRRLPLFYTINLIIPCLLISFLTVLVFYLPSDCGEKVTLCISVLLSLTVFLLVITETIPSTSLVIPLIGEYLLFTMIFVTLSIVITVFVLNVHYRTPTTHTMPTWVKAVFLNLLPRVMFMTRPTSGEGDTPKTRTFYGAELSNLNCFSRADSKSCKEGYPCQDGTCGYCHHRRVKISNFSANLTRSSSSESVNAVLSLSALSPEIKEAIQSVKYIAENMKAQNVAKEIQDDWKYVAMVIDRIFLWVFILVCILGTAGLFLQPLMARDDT

SMILES | pKi [1] | pKi [2]
Fc1ccc(C2CC3CCC2N3)cn1 [(R)-2-(6-Fluoro-pyridin-3-yl)-7-aza-bicyclo[2.2.1]heptane] | 11.40 | 
c1cncc(C2CC3CCC2N3)c1 (configuration not stated) [2-(pyridin-3-yl)-7-aza-bicyclo[2.2.1]heptane] |  | 11.05
